Results reported in ChEMBL document CHEMBL3132819, “2-Hydroxy-substituted cinnamic acids and acetanilides are selective growth inhibitors of Mycobacterium tuberculosis” (Medchemcomm, 2014).
Values after ≈ are worked out from the molar mass of the structure shown.

What follows are compounds tested on Mycobacterium tuberculosis variant bovis BCG (assay: Antibacterial activity against Mycobacterium bovis BCG ATCC 35734 after 2 weeks by spot culture growth inhibition assay). Conditions: ATCC 35734, 336 h.
Assay type: functional

Row | SMILES | MIC
1 | CC(C)=CCOc1cccc(/C=C/C(=O)O)c1 | 258 µM (≈ 59.9 µg/mL)
2 | COC(=O)/C=C/c1ccc(OCC=C(C)C)cc1 | 60.9 µM (≈ 15 µg/mL)
3 | CO[C@H]1/C=C/O[C@@]2(C)Oc3c(C)c(O)c4c(O)c(c(/C=N/N5CCN(C)CC5)c(O)c4c3C2=O)NC(=O)/C(C)=C\C=C\[C@H](C)[C@H](O)[C@@H](C)[C@@H](O)[C@@H](C)[C@H](OC(C)=O)[C@@H]1C [RIFAMPIN] | 0.0607 µM (≈ 0.05 µg/mL)
4 | CC(=O)Nc1ccc(O)cc1 [ACETAMINOPHEN] | > 661 µM
5 | CC(=O)Nc1ccccc1O | 132 µM (≈ 20 µg/mL)
6 | CC(=O)Nc1cccc(O)c1 [METACETAMOL] | > 661 µM
7 | COC(=O)/C=C/c1cccc(OCC=C(C)C)c1 | 244 µM (≈ 60.1 µg/mL)
8 | O=C(O)/C=C/c1cccc(O)c1 | 609 µM (≈ 100 µg/mL)
9 | O=C(O)/C=C/c1ccc(O)cc1 [COUMARIC ACID] | 366 µM (≈ 60.1 µg/mL)
10 | CC(C)=CCC/C(C)=C/COc1ccc(/C=C/C(=O)O)cc1 | 134 µM (≈ 40.3 µg/mL)
11 | COC(=O)/C=C/c1cccc(O)c1 | 561 µM (≈ 100 µg/mL)
12 | COC(=O)/C=C/c1ccc(O)cc1 [METHYL P-HYDROXYCINNAMATE] | 337 µM (≈ 60 µg/mL)
13 | CC(C)=CCOc1ccccc1/C=C/C(=O)O | 258 µM (≈ 59.9 µg/mL)
14 | CC(C)=CCOc1ccc(/C=C/C(=O)O)cc1 | 86.1 µM (≈ 20 µg/mL)
15 | O=C(O)/C=C/c1ccccc1 [CINNAMIC ACID] | 405 µM (≈ 60 µg/mL)
16 | O=C(O)/C=C/c1ccccc1O [O-COUMARIC ACID] | 244 µM (≈ 40.1 µg/mL)
17 | COC(=O)/C=C/c1ccccc1O | 112 µM (≈ 20 µg/mL)
18 | O=C(O)/C=C/c1ccc2c(c1)OCO2 | 416 µM (≈ 79.9 µg/mL)
19 | COC(=O)/C=C/c1ccc(OC/C=C(\C)CCC=C(C)C)cc1 | 254 µM (≈ 79.9 µg/mL)
20 | COC(=O)/C=C/c1ccccc1OCC=C(C)C | > 406 µM
21 | NNC(=O)c1ccncc1 [ISONIAZID] | 0.73 µM (≈ 0.1 µg/mL)
